Results reported in US6875768B1, “Phthalamide derivatives, intermediates in the production thereof, and agricultural/horticultural insecticides and method for using the same” (Nihon Nohyako Co., Ltd., priority 1999, dated 2005).

What was measured:
[1] = tested on: diamond back moth (Plutella xylostella); assay type: in vivo; settings: 1,000 ppm; Chinese cabbage seedling with eggs immersed about 30 seconds; counted six days after the immersion; 25° C.
From the text: Insecticidal effect on diamond back moth (Plutella xylostella)
Adult diamond back moths were released and allowed to oviposit on a Chinese cabbage seedling. […] Six days after the immersion, the hatched insects were counted. […] [formula] Criterion • A - - - Mortality 100% • B - - - Mortality 99-90% • C - - - Mortality 89-80% • D - - - Mortality 79-50%

[2] = tested on: Common cutworm (Spodoptera litura); assay type: in vivo; settings: 500 ppm; cabbage leaf immersed about 30 seconds; second-instar larvae; eight days after the inoculation; 25° C.
From the text: Insecticidal Effect on Common cutworm (Spodoptera litura)

Structure (SMILES)	insecticidal effect (activity ranking by mortality) [1]	insecticidal effect (activity ranking by mortality) [2]
CSCC(C)(C)NC(=O)c1c(I)cccc1C(=O)Nc1ccc(OC(F)(F)C(F)C(F)(F)F)nc1C (stereo not drawn) [Q27-396]	B or higher	–
Cc1nc(OC(F)(F)C(F)C(F)(F)F)ccc1NC(=O)c1cccc(I)c1C(=O)NC(C)C (stereo not drawn) [Q27-391]	B or higher	–
CSCC(C)(C)NC(=O)c1c(I)cccc1C(=O)Nc1ccc(C(F)(C(F)(F)F)C(F)(F)F)nc1SC [Q27-245]	B or higher	B or higher
CC(C)NC(=O)c1cccc(Cl)c1C(=O)Nc1nc(C(F)(F)F)cs1 [Q8-13]	B or higher	–
COc1nc(C(F)(C(F)(F)F)C(F)(F)F)ccc1NC(=O)c1cccc(I)c1C(=O)NC(C)C [Q27-242]	B or higher	B or higher
Cc1nc(OC(C(F)(F)F)C(F)(F)F)ccc1NC(=O)c1cccc(C(F)(F)F)c1C(=O)NC(C)(C)C[S+](C)[O-] (stereo not drawn) [Q27-360]	B or higher	B or higher
CCN(CC)C(=O)c1c(I)cccc1C(=O)Nc1nc(-c2ccc(Cl)cc2)cs1 [Q8-53]	B or higher	–
Cc1csc(NC(=O)c2cccc(Cl)c2C(=O)NC(C)C)n1 [Q8-2]	B or higher	–
CSCC(C)(C)NC(=O)c1c(I)cccc1C(=O)Nc1ccc(NC(=O)C(F)(F)C(F)(F)F)nc1C [Q27-439]	B or higher	B or higher
C[S+]([O-])CC(C)(C)NC(=O)c1c(I)cccc1C(=O)Nc1cccnc1C(F)(C(F)(F)F)C(F)(F)F (stereo not drawn) [Q27-238]	B or higher	B or higher
Cc1nc(OC(C(F)(F)F)C(F)(F)F)ccc1NC(=O)c1cccc(Cl)c1C(=O)NC(C)C [Q27-297]	B or higher	B or higher
Cc1nc(OC(C(F)(F)F)C(F)(F)F)ccc1NC(=O)c1cccc(C(F)(F)F)c1C(=O)NC(C)C [Q27-354]	B or higher	B or higher
CC(C)(CS(C)(=O)=O)NC(=O)c1c(I)cccc1C(=O)Nc1ccc(C(F)(C(F)(F)F)C(F)(F)F)nc1Cl [Q27-236]	B or higher	B or higher
CSCC(C)(C)NC(=O)c1c(C(=O)Nc2ccc(OC(C(F)(F)F)C(F)(F)F)nc2C)cccc1[N+](=O)[O-] [Q27-352]	B or higher	B or higher
CC(C)NC(=O)c1c(I)cccc1C(=O)Nc1c(Cl)ncnc1Cl [Q32-11]	B or higher	–
CC(C)NC(=O)c1cccc(Cl)c1C(=O)Nc1nc(-c2ccccc2)cs1 [Q8-14]	B or higher	–
Cc1c(NC(=O)c2c(I)cccc2C(=O)NC(C)C)noc1C(F)(F)F [Q4-45]	B or higher	–
Cc1nc(C(F)(C(F)(F)F)C(F)(F)F)ccc1NC(=O)c1cccc(I)c1C(=O)NC(C)(C)CS(C)(=O)=O [Q27-155]	B or higher	B or higher
CSCC(C)(C)NC(=O)c1c(I)cccc1C(=O)Nc1ccc(C(F)(C(F)(F)F)C(F)(F)F)nc1 [Q27-233]	B or higher	B or higher
CSCC(C)(C)NC(=O)c1c(I)cccc1C(=O)Nc1ccc(OC(F)(F)C(F)F)nc1C [Q27-384]	B or higher	B or higher
CSCC(C)(C)NC(=O)c1c(I)cccc1C(=O)Nc1c(Cl)cc(C(F)(C(F)(F)F)C(F)(F)F)nc1Cl [Q27-240]	B or higher	B or higher
Cc1nc(OC(C(F)(F)F)C(F)(F)F)ccc1NC(=O)c1cccc(Cl)c1C(=O)NC(C)(C)C [Q27-298]	B or higher	B or higher
Cc1nc(OCC(F)(F)C(F)(F)F)ccc1NC(=O)c1cccc(I)c1C(=O)NC(C)C [Q27-413]	B or higher	B or higher
CC(C)NC(=O)c1cccc(Cl)c1C(=O)Nc1nc(-c2ccccc2)c(Cl)s1 [Q8-15]	B or higher	–
Cc1nc(OC(C(F)(F)F)C(F)(F)F)ccc1NC(=O)c1ccc(Cl)c(Cl)c1C(=O)NC(C)C[S+](C)[O-] (stereo not drawn) [Q27-335]	B or higher	B or higher
Cc1cc(C(C)(C)C)sc1NC(=O)c1cccc(I)c1C(=O)NC(C)C [Q1-12]	B or higher	–
Cc1c(C(F)(F)F)noc1NC(=O)c1cccc(I)c1C(=O)NC(C)C [Q6-8, N^1-(4-methyl-3-trifluoromethyl-isoxazol-5-yl)-N^2-isopropyl-3-iodophthalamide]	B or higher	–
COc1nc(NC(=O)c2cccc(I)c2C(=O)NC(C)C)nc(OC)c1C(F)(C(F)(F)F)C(F)(F)F [Q33-10]	B or higher	–

Structure (SMILES)	insecticidal effect (activity ranking by mortality) [1]	insecticidal effect (activity ranking by mortality) [2]
Cc1nc(OC(C(F)(F)F)C(F)(F)F)ccc1NC(=O)c1ccc(Cl)c(Cl)c1C(=O)NC(C)C [Q27-332]	B or higher	B or higher
CC(C)NC(=O)c1c(Cl)cccc1C(=O)Nc1nc(C(F)(F)F)cs1 [Q8-3]	B or higher	–
Cc1cc(C(C)(C)C)sc1NC(=O)c1c(I)cccc1C(=O)NC(C)C [Q1-41]	B or higher	–
CC(C)NC(=O)c1c(Cl)cccc1C(=O)Nc1cc(-c2ccc(Br)cc2)on1 [Q4-6]	B or higher	–
Cc1nc(OC(C(F)(F)F)C(F)(F)F)ccc1NC(=O)c1cccc([N+](=O)[O-])c1C(=O)NC(C)C [Q27-347]	B or higher	B or higher
CC(C)(CS(C)(=O)=O)NC(=O)c1c(I)cccc1C(=O)Nc1ccc(OC(C(F)(F)F)C(F)(F)F)nc1Cl [Q27-267]	B or higher	B or higher
CSCC(C)NC(=O)c1c(I)cccc1C(=O)Nc1ccc(OCC(F)(F)C(F)(F)F)nc1C (stereo not drawn) [Q27-414]	B or higher	B or higher
CSCC(C)(C)NC(=O)c1c(I)cccc1C(=O)Nc1cnc(C(F)(C(F)(F)F)C(F)(F)F)nc1C [Q32-19]	B or higher	B or higher
Cc1nc(C(F)(C(F)(F)F)C(F)(F)F)ccc1NC(=O)c1cccc(I)c1C(=O)NC(C)(C)C[S+](C)[O-] (stereo not drawn) [Q27-153]	B or higher	B or higher
Cc1cc(C(F)(C(F)(F)F)C(F)(F)F)ncc1NC(=O)c1cccc(I)c1C(=O)NC(C)(C)C[S+](C)[O-] (stereo not drawn) [Q27-152]	–	B or higher
CSCC(C)(C)NC(=O)c1c(I)cccc1C(=O)Nc1ccc(C(F)(C(F)(F)F)C(F)(F)F)nc1C [Q27-243]	B or higher	B or higher
CCN(CC)C(=O)c1c(I)cccc1C(=O)Nc1cnccn1 [Q34-30]	B or higher	–
Cc1ncoc1NC(=O)c1cccc(I)c1C(=O)NC(C)C [Q10-7]	B or higher	–
Cc1nc(Oc2ccc(C(F)(F)F)cc2)ccc1NC(=O)c1cccc(I)c1C(=O)NC(C)C [Q27-466]	–	B or higher
Cc1sc(I)nc1NC(=O)c1cccc(I)c1C(=O)NC(C)C [Q9-15]	B or higher	–
Cc1c(NC(=O)c2c(Cl)cccc2C(=O)NC(C)C)noc1-c1ccc(Cl)cc1 [Q4-8]	B or higher	–
COc1cc(OC)nc(NC(=O)c2ccccc2C(=O)NC(C)C)n1 [Q33-1]	B or higher	–
CCCNC(=O)c1c(Cl)cccc1C(=O)Nc1nc(C)c(Oc2ccccc2)n1C [Q8-11]	B or higher	–
CC(C)NC(=O)c1c(Cl)cccc1C(=O)Nc1nc(-c2ccccc2)c(Cl)s1 [Q8-5]	B or higher	–
Cc1cc(NC(=O)c2cccc([N+](=O)[O-])c2C(=O)NC(C)C)n(C)n1 [Q6-6]	B or higher	–
Cc1ccsc1NC(=O)c1c(I)cccc1C(=O)NC(C)C [Q1-42]	B or higher	–
CSCC(C)(C)NC(=O)c1c(I)cccc1C(=O)Nc1ccc(OC(F)(F)C(F)C(F)(F)F)nc1C (stereo not drawn) [Q27-393]	B or higher	–
CC(C)NC(=O)c1c(I)cccc1C(=O)Nn1cnnc1 [Q15-1]	B or higher	–
Cc1nc(C(F)(C(F)(F)F)C(F)(F)F)ccc1NC(=O)c1cccc(I)c1C(=O)NC(C)(C)C[S+](C)[O-] (stereo not drawn) [Q27-244]	B or higher	–
CC(C)NC(=O)c1c(Cl)cccc1C(=O)Nc1ccc(C(F)(C(F)(F)F)C(F)(F)F)nc1Cl [Q27-459]	–	B or higher
CC(C)NC(=O)c1c(Cl)cccc1C(=O)Nc1nccs1 [Q8-1]	B or higher	–
Cc1c(NC(=O)c2cccc(I)c2C(=O)NC(C)C)noc1C(F)(F)F [Q4-12]	B or higher	–
